Data reported in ChEMBL document CHEMBL2203268, “Resveratrol as a kcat type inhibitor for tyrosinase: potentiated melanogenesis inhibitor” (Bioorg Med Chem, 2012).
pIC50: −log10 of the molar value. One block for each compound: values may come before it. Active and inactive are the calls of the source. No cut-off for these calls is given here.

Key:
B16-F10 [1] = assay: Cytotoxicity against mouse B16F10 cells assessed as suppression of cell viability at 12.5 to 200 uM after 72 hrs; format: cell-based; conditions: b16-f10, 72 h
B16-F10 [2] = assay: Cytotoxicity against mouse B16F10 cells assessed as suppression of cell viability at 400 uM after 72 hrs; format: cell-based; conditions: b16-f10, 72 h
[3] = molecular target: T1, Tyrosinase (Agaricus bisporus) (UniProt O42713); assay: Inhibition of mushroom tyrosinase-mediated oxygen consumption using L-tyrosine substrate after 60 mins
T1 sequence (whole entry): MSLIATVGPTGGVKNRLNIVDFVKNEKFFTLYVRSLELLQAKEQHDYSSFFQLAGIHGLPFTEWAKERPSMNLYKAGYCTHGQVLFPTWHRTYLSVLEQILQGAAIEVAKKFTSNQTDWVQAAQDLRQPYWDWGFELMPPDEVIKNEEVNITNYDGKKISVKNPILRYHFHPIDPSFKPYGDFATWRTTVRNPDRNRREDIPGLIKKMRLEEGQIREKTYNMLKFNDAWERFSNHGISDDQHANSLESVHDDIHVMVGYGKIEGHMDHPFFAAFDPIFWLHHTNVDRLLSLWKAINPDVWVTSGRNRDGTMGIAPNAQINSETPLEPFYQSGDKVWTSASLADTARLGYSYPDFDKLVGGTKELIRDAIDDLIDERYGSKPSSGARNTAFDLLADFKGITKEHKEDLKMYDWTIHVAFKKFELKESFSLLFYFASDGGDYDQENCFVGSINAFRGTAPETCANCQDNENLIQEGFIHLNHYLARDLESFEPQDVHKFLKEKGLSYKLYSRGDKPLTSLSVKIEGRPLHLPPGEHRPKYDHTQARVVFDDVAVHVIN

[4] = molecular target: T1, Tyrosinase (Agaricus bisporus); assay: Inhibition of mushroom tyrosinase assessed as L-DOPA oxidation at 100 uM incubated 30 mins prior to substrate addition measured after 60 mins by UV-vis spectrophotometric analysis
[5] = molecular target: T1, Tyrosinase (Agaricus bisporus); assay: Inhibition of mushroom tyrosinase assessed as L-tyrosine oxidation at 100 uM incubated 30 mins prior to substrate addition measured after 60 mins by UV-vis spectrophotometric analysis
[6] = molecular target: T1, Tyrosinase (Agaricus bisporus); assay: Inhibition of mushroom tyrosinase-mediated dopachrome formation after 60 mins by UV-vis spectrophotometric analysis
[7] = molecular target: T1, Tyrosinase (Agaricus bisporus); assay: Inhibition of mushroom tyrosinase assessed as L-DOPA oxidation HPLC analysis
[8] = molecular target: T1, Tyrosinase (Agaricus bisporus); assay: Inhibition of mushroom tyrosinase-mediated L-DOPA oxidation assessed as decrease in dopachrome formation at 100 uM incubated 30 mins prior to substrate addition measured after 60 mins by UV-vis spectrophotometric analysis
[9] = Drug metabolism assessed as oxidation of the compound at 100 uM by HPLC analysis in the presence of tyrosinase; format: physicochemical; conditions: TDE = time-dependent effect
[10] = molecular target: T1, Tyrosinase (Agaricus bisporus); assay: Inhibition of mushroom tyrosinase-mediated L-DOPA oxidation assessed as decrease in dopachrome formation at 100 uM preincubated for 30 mins by HPLC analysis
[11] = molecular target: T1, Tyrosinase (Agaricus bisporus); assay: Inhibition of mushroom tyrosinase-mediated L-tyrosine oxidation after 60 mins by HPLC analysis
B16-F10 [12] = assay: Cytotoxicity against mouse B16F10 cells assessed as suppression of cell viability at 200 uM after 72 hrs; format: cell-based; conditions: b16-f10, 72 h
[13] = molecular target: T1, Tyrosinase (Agaricus bisporus); assay: Inhibition of mushroom tyrosinase-mediated L-tyrosine oxidation assessed as decrease in dopachrome formation at 100 uM after 60 mins by UV-vis spectrophotometric analysis
[14] = molecular target: T1, Tyrosinase (Agaricus bisporus); assay: Inhibition of mushroom tyrosinase-mediated oxygen consumption using L-DOPA substrate at 100 uM after 30 mins
B16-F10 [15] = assay: Antimelanogenic activity in mouse assessed as cellular melanin content B16F10 cells at 200 uM after 72 hrs spectrophotometric analysis; format: functional, cell-based
[16] = Drug metabolism assessed as oxidation of the compound at 100 uM after 30 mins by HPLC analysis in the presence of tyrosinase; format: physicochemical; conditions: 0.5 h
[17] = Drug metabolism assessed as oxidation of the compound at 100 uM after 10 mins by UV-vis spectrophotometric analysis in the presence of tyrosinase; format: physicochemical
[18] = molecular target: T1, Tyrosinase (Agaricus bisporus); assay: Inhibition of mushroom tyrosinase-mediated oxygen consumption at 100 uM using L-tyrosine substrate incubated 30 mins prior to substrate addition measured after 60 mins
[19] = molecular target: T1, Tyrosinase (Agaricus bisporus); assay: Inhibition of mushroom tyrosinase-mediated L-DOPA oxidation at 100 uM after 30 mins by UV-vis spectrophotometric analysis
[20] = molecular target: T1, Tyrosinase (Agaricus bisporus); assay: Inhibition of mushroom tyrosinase-mediated oxygen consumption at 100 uM using L-DOPA substrate incubated 30 mins prior to substrate addition measured after 60 mins
[21] = molecular target: T1, Tyrosinase (Agaricus bisporus); assay: Inhibition of mushroom tyrosinase-mediated L-DOPA oxidation assessed as recovery of enzymatic activity at 100 uM preincubated for 30 mins by HPLC analysis in the presence of 200 uM of L-cysteine
[22] = molecular target: T1, Tyrosinase (Agaricus bisporus); assay: Activation of mushroom tyrosinase assessed as dopachrome formation after 60 mins by UV-vis spectrophotometric analysis
tyrosinase = assay: Drug metabolism assessed as oxidation of the compound at 100 uM after 60 mins by HPLC analysis in the presence of tyrosinase; format: physicochemical; conditions: read-out: Drug metabolism
B16-F10 [23] = assay: Antimelanogenic activity in mouse assessed as cellular melanin content B16F10 cells after 72 hrs by spectrophotometric analysis; format: functional, cell-based
[24] = molecular target: T1, Tyrosinase (Agaricus bisporus); assay: Activation of mushroom tyrosinase assessed as oxygen consumption using L-tyrosine substrate after 60 mins
B16-F10 [25] = assay: Cytotoxicity against mouse B16F10 cells assessed as suppression of cell viability after 72 hrs; format: cell-based
[26] = molecular target: T1, Tyrosinase (Agaricus bisporus); assay: Activation of mushroom tyrosinase assessed as L-DOPA oxidation at 100 uM after 30 mins by UV-vis spectrophotometric analysis
[27] = molecular target: T1, Tyrosinase (Agaricus bisporus); assay: Inhibition of mushroom tyrosinase-mediated L-tyrosine oxidation at 100 uM after 60 mins by HPLC analysis

SMILES: Oc1cc(O)cc(/C=C/c2ccccc2)c1 [PINOSYLVIN]
- Activity (B16-F10 [1]): Non-toxic
- Activity (B16-F10 [2]): Toxic

- inhibition [3]: inactive
- inhibition [4]: 90%
- inhibition [5]: Active
- inhibition [6]: inactive
- inhibition [7]: Active
- inhibition [8]: Active
- Drug metabolism [9]: tde
- inhibition [10]: 10%
- inhibition [11]: Dose-dependent effect
- inhibition [13]: Active
- inhibition [14]: inactive
- Drug metabolism [16]: Active
- Drug metabolism [17]: Active
- inhibition [18]: Active
- inhibition [19]: inactive
- inhibition [20]: Active
- inhibition [21]: 20%
- Activity [22]: Dose-dependent effect
- metabolised at 1 h, 100 µM (tyrosinase): 90%
- Activity [24]: Dose-dependent effect
- Activity [26]: inactive
- inhibition [27]: Active
SMILES: Oc1ccc(/C=C/c2cc(O)cc(O)c2)cc1 [RESVERATROL]
- Activity (B16-F10 [1]): Non-toxic
- Activity (B16-F10 [12]): 10%
- Activity (B16-F10 [15]): Active
- Activity (B16-F10 [23]): Dose-dependent effect
- pIC50 (B16-F10 [25]; Mus musculus, B16-F10, 72 h): < 3.70
- Activity (B16-F10 [25]; mouse, b16-f10, 72 h): Dose-dependent effect

SMILES: Oc1cc(O)cc(CCc2ccccc2)c1 [DIHYDROPINOSYLVIN]
- Activity (B16-F10 [1]): Non-toxic
- Activity (B16-F10 [23]): inactive

SMILES: Oc1cc(O)cc(/C=C\c2ccccc2)c1
- Activity (B16-F10 [1]): Non-toxic
- Activity (B16-F10 [23]): inactive
